Numbered stars: 1 amine (or outer) side, 2 acyl side, 3 side chain; on linkers, the order of the positions; unused ones are H or OH. Square brackets hold non-standard residues; d marks the D form. Side chains are listed from the residue outwards. Peptide text beside a SMILES is read from it. * marks the point of attachment. C18 diacid = O=C(O)CCCCCCCCCCCCCCCCC(=O)*; γGlu = O=C(O)[C@H](CCC(=O)[*:2])N[*:1]; Aib = CC(C)(N)C(=O)O
Legend:
Mouse GCGR [1] = target: T1, Mouse GCGR (Mus musculus, UniProt Q61606); assay: Receptor binding, SPA competitive binding assay; conditions: SPA competitive binding on BHK cell membranes, [125I]-glucagon tracer, 1% species specific plasma, 2 h 30°C; value (95% CI)
T1 construct: a plasmid encoding either the glucagon receptor or the GLP-1 receptor from the relevant species; expressed in transfected cells

Mouse GCGR [2] = target: T1, Mouse GCGR; assay: Receptor potency, CRE-luciferase functional assay in BHK cells; type: cell-based; conditions: Mouse receptors, whole BHK cells, 3 h 37°C, value (95% CI)
Procedure: (§1) The binding assay was performed on cell membranes in the presence of 1% (v/v) species-specific heparin-treated pooled plasma (Bioreclamation IVT, Westbury, NY) diluted in assay buffer (50 mM HEPES supplemented with 5 mM EGTA, 5 mM MgCl2, and 0.005% (v/v) Tween 20, pH7.4). […] Cells stably expressing an individual receptor of interest were grown at 5% CO2, 37°C in DMEM (supplemented with 10% FCS, 0.5 mg/ml G418 and 0.3 mg/ml hygromycin). Membrane preparations were made from cells harvested at approximately 80% confluence, washed and homogenized in 20 mM HEPES with 0.1 mM EDTA, pH 7.4. Protein concentration was determined, and the membranes were stored at -80°C until use. The membrane binding assay was performed in a 96-well OptiPlate (PerkinElmer) in a total volume of 200 μl. Test compounds were dissolved in 80% DMSO and further diluted in assay buffer. 50 μl of diluted plasma was added to the assay plate wells followed by addition of test compounds (25 μl), cell membranes (50 μl, 0.06 mg/ml), SPA beads (20 mg/ml in assay buffer) and radioligand (60,000 cpm/well, corresponding to 0.06 nM; 2200 Ci/mmol. Each assay plate was incubated for 2 h at 30°C, centrifuged at 1500 rpm for 10 minutes and counted in a TopCount NXT instrument (PerkinElmer).
(§2) Functional assays were performed on whole cells in the absence or presence of 100% species-specific heparin-treated pooled plasma (Bioreclamation IVT). […] The cells were cultured with DMEM (supplemented with GlutaMAX, 10% FBS, 0.5 mg/ml G418 and 0.3 mg/ml hygromycin) at 5% CO2 and 37°C. At approximately 80–90% confluence, cells were washed with PBS and harvested with Versene (Life Technologies, Carlsbad, CA). The cells were counted and plated into 96-well microtiter plates coated with poly-D-Lys (Corning BioCoat) with 5,000 cells/well and thereafter incubated overnight in growth media. The next day the media was changed to assay buffer (DMEM without phenol red, supplemented with GlutaMAX, 10 mM HEPES, 1% ovalbumin and 0.1% Pluronic F-68) or to 100% plasma. In the absence of plasma, compounds were diluted in assay buffer. In assays tested with plasma, compounds were diluted in pure plasma. Buffer was removed from the plates and 50 μl of test compound dilutions was added to the plates followed by 50 μl of plasma or the same buffer used for compound dilution. The assay plates were incubated for 3 h in a 5% CO2 incubator at 37°C. The plates were then transferred to room temperature for 15 min and 100 μl Steadylite Plus reagent (PerkinElmer) was added to each well. The plates were shaken for 30 min at room temperature while protected from light after which luminescence was measured.
(§3) For the receptor binding assays, logIC50 values were calculated using non-linear regression analysis. The error estimation was reported as the 95% confidence interval. […] The calculations were performed in GraphPad Prism 6.4 (GraphPad, San Diego, CA) and error estimation was expressed as the 95% confidence interval. […] Averages, error estimation, ratios and plasma shifts were all calculated on logIC50 or logEC50 values and transformed to the anti-log values for reporting purposes.

Mouse GLP-1R = target: T2, Mouse GLP-1R (Mus musculus, UniProt O35659); assay: as above; type: cell-based; conditions: GLP-1R EC50, pM (95% CI) 100% plasma, Mouse receptors, whole BHK cells, 100% species-specific plasma, 3 h 37°C, value (95% CI)
T2 construct: a plasmid encoding either the glucagon receptor or the GLP-1 receptor from the relevant species; expressed in transfected cells
T2 sequence (O35659 22-463): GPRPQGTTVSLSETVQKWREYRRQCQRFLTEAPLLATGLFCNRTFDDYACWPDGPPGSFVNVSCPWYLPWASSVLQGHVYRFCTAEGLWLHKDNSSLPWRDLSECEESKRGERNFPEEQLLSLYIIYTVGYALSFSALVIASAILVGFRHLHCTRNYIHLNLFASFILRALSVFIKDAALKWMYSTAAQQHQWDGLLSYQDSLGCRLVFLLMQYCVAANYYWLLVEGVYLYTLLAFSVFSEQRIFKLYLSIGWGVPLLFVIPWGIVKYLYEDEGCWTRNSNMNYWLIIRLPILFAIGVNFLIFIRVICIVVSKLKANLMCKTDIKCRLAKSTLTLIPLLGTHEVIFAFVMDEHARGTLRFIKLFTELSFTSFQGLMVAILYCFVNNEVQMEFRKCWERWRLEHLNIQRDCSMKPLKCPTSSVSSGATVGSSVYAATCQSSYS
Procedure: as §1, §2, §3

Rat GCGR = target: T3, Rat GCGR (Rattus norvegicus, UniProt P30082); assay: as above; type: cell-based; conditions: Rat receptors, whole BHK cells, 0% plasma, 3 h 37°C, value (95% CI)
T3 construct: a plasmid encoding either the glucagon receptor or the GLP-1 receptor from the relevant species; expressed in transfected cells
Procedure: as §1, §2, §3

DIO rats = assay: Subchronic effect on body weight, body composition and food intake in DIO rats; type: in vivo, rat; conditions: three weeks
Source text: Male C57Bl/6J mice were purchased from Jackson Lab (Bar Harbour, ME) or Taconic, (Denmark). Male Sprague Dawley rats were purchased from Taconic (Denmark). Lean animals were fed regular chow diet (Altromin 1324, Brogaarden, Denmark). Obese animals were fed a high-fat diet, 45% kcal from fat (D12492, Research Diets, New Brunswick, NJ) from the age of 4–6 weeks in order to obtain a diet induced obese (DIO) phenotype. Animals were housed under temperature and humidity-controlled conditions in a 12:12 hr light:dark cycle (lights on at 6 a.m.). Rats were housed three per cage during high fat feeding and were single housed five weeks prior to study. Mice were single housed, two per cage, with a partitioning wall where possible. All animals had ad libitum access to diet and water, except when fasted prior to experimental procedures. Animals were acclimatized to study conditions (energy expenditure cages, daily mock handling etc) at least one week prior to first dose. […] At the time of study, animals were 20–30 weeks old with a body weight of 45–50 g (DIO mice) or approximately 600 g (DIO rats). […] Oral glucose tolerance was evaluated on study day 15, 5 h post-dosing (at Cmax). Animals were fasted for 5 h prior to oral administration of glucose (3 g/kg). […] Conscious animals were MR-scanned prior to initiation of treatment and at the end of the treatment period.

T1 sequence (Q61606 27-485): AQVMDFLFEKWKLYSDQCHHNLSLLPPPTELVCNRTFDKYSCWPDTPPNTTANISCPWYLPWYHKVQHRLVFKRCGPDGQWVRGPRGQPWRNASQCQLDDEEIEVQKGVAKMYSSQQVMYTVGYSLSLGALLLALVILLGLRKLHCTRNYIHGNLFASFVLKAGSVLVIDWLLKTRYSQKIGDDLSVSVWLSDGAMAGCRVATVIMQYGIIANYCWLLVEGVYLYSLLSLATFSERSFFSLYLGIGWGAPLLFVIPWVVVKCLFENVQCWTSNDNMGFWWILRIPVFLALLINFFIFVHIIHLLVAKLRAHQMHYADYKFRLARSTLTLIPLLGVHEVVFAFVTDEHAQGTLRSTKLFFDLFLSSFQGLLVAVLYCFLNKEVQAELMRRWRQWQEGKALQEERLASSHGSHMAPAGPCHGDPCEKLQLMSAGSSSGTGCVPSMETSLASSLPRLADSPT
T3 sequence (P30082 27-485): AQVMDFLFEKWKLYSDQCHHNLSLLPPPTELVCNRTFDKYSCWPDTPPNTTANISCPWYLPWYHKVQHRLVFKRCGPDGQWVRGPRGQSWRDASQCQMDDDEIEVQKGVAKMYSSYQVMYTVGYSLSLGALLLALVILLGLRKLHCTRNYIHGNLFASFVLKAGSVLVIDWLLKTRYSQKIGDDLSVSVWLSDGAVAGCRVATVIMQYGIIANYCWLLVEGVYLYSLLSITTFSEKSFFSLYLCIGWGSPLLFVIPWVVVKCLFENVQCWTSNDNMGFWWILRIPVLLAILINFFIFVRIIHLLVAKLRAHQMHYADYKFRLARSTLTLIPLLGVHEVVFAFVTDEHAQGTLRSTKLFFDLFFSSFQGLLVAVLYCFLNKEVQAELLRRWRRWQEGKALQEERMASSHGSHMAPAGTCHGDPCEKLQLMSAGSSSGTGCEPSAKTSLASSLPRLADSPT

Compound: CC(C)C[C@H](NC(=O)[C@H](Cc1ccc(O)cc1)NC(=O)[C@H](CCCCN)NC(=O)[C@H](CO)NC(=O)[C@H](CC(C)C)NC(=O)[C@H](CC(=O)O)NC(=O)[C@H](CO)NC(=O)[C@@H](NC(=O)[C@H](Cc1ccccc1)NC(=O)[C@@H](NC(=O)CNC(=O)[C@H](CCC(N)=O)NC(=O)C(C)(C)NC(=O)[C@@H](N)Cc1c[nH]cn1)[C@@H](C)O)[C@@H](C)O)C(=O)N[C@@H](CCC(=O)O)C(=O)N[C@@H](CO)C(=O)N[C@@H](CCCCN)C(=O)N[C@@H](CCCNC(=N)N)C(=O)N[C@@H](C)C(=O)N[C@@H](CCCNC(=N)N)C(=O)N[C@@H](CCC(=O)O)C(=O)N[C@@H](Cc1ccccc1)C(=O)N[C@H](C(=O)N[C@@H](CCC(N)=O)C(=O)N[C@@H](Cc1c[nH]c2ccccc12)C(=O)N[C@@H](CC(C)C)C(=O)N[C@@H](CC(C)C)C(=O)N[C@@H](CCCCNC(=O)CC[C@H](NC(=O)CC[C@H](NC(=O)[C@H](CO)NC(=O)[C@H](CCC(=O)O)NC(=O)[C@H](CO)NC(=O)CC[C@H](NC(=O)CC[C@H](NC(=O)CCCCCCCCCCCCCCCCC(=O)O)C(=O)O)C(=O)O)C(=O)O)C(=O)O)C(=O)N[C@H](C(N)=O)[C@@H](C)O)C(C)C [NN1177] (H-H[Aib]QGTFTSDLSKYLESKRAREFVQWLLK([γGlu-γGlu-Ser-Glu-Ser-γGlu-γGlu-C18 diacid])T-NH2)
- IC50 (Mouse GCGR [1]): 0.29 nM
- EC50 (Mouse GCGR [2]; GCGR EC50, pM (95% CI) 0% plasma, 0% plasma): 1.96 pM
- EC50 (Mouse GCGR [2]; GCGR EC50, pM (95% CI) 100% plasma, 100% species-specific plasma): 103 pM
- EC50 (Mouse GLP-1R): 12.6 pM
- EC50 (Rat GCGR): 0.00183 nM
- Weight loss (DIO rats; 3 nmol/kg each compound s.c. once daily): 20%
- Cumulative food intake (DIO rats; 3 nmol/kg s.c. once daily): equal reduction

Source: publication PMC8896685 (PLoS ONE, 2022)
